Entries after “also recorded” stand apart in the source; their conditions may differ.
Legend:
HCT116 and HT29 = experiment: quantitative MSP and real-time RT-PCR with and without 5-aza-dC treatment, five further genes; type: cell-based, human; conditions: all five genes, in a colon cancer cell line, after 5-aza-dC treatment
Experimental: Next, a cDNA microarray analysis of two colon cancer cell lines was performed, comparing cells treated with 5-aza-dC and untreated cells. Briefly, the colon cancer cell lines HT29 and HCT116 were seeded at a density of 4×10^5 cells per 75 cm^2 culture flask and incubated for 24 hours in growth media. The cells were then treated with 5-aza-dC in either one of the following conditions: a) 10 μM 5-aza-dC for 84 hours or b) 1 μM 5-aza-dC for 24 hours followed by 60 hours of 5-aza-dC-free growth. […]
Tumor samples were snap frozen on dry ice and stored at −80° C. […] DNA methylation status and levels of the 4 candidate markers were determined with real-time quantitative MSP using the ABI 7900 HT Sequence Detection (Taqman) System, as described previously in Sato F., et al., Cancer Res. 62:6820-22 (2002), which is incorporated by reference. Primers and probes for quantitative MSP of (SHP-1, DcR1, RARβ, and DcR2) are disclosed in Takahashi, T. et al, Int'l J. Cancer, 118(4): 924-931 (2005), which is incorporated by reference.
DNA methylation status and levels of 5 genes were determined with real-time quantitative MSP using the ABI 7900 HT Sequence Detection (Taqman) System, as described previously in Sato F., et al., Cancer Res. 62:6820-22 (2002), which is incorporated by reference. Primers and probes for quantitative MSP of ENG, MAL, CAV1, TAC1, SST, NELL1 and AKAP12 are below in Tables III and IV. […]

KYSE220 = experiment: 5-Aza-dC treatment of esophageal cancer cell line, qMSP and qRT-PCR; type: cell-based; conditions: 1 μl of 5 mM 5-Aza-dC per ml of cells every 24 hours for 6 days
Experimental: (§1) Samples and cell lines were treated as in Example 1. Briefly, extracted DNA was treated with bisulfite to convert unmethylated cytosines to uracils prior to MSP. Promoter methylation levels of TAC1 were determined using qMSP with the ABI 7700 Sequence Detection (Taqman) System, using primers and probes described. A normalized methylation value (NMV), reflecting the percentage of DNA methylated for the gene of interest (GoI), was defined as follows: NMV=(GoI-S/GoI-FM)/(ACTB-S/ACTB-FM), where GoI-S and GoI-FM represent GoI methylation levels in the sample and fully methylated DNAs, respectively, while ACTB-S and ACTB-FM correspond to β-Actin in the sample and fully methylated DNAs, respectively.
(§2) To determine TAC1 mRNA levels, one-step real-time quantitative RT-PCR was performed using a Qiagen QuantiTect Probe RT-PCR Kit (Qiagen, Hilden, Germany) and the ABI 7700 Sequence Detection (Taqman) System. Primers and probes are described herein. β-Actin was used to normalize data. A standard curve was generated using serial dilutions of qPCR Reference Total RNA (Clontech, Mountainview, Calif.). The normalized mRNA value (NRV) was calculated according to the following formula for relative expression of target mRNA: Expression index=(TarS/TarC)/(ACTB-S/ACTB-C, where TarS and TarC represent levels of mRNA expression for the target gene in the sample and control mRNAs, respectively, whereas ACTB-S and ACTB-C correspond to amplified ACTB levels in the sample and control mRNAs, respectively.
as §2, with “SST” for “TAC1”, “were the same as previously reported. 12” for “are described herein.”, “for normalization of” for “to normalize”, “NRV=(TarS/TarC)/(ACTB-S/ACTB-C),” for “Expression index=(TarS/TarC)/(ACTB-S/ACTB-C,”, “in” for “in the”
To determine whether TAC1 inactivation was due to promoter hypermethylation in esophageal cancer, 2 esophageal cancer cell lines (KYSE220 and BIC) were subjected to 5-Aza-dC (Sigma, St. Louis, Mo.) treatment. Briefly, 1×10^5 cells/ml were seeded onto a 100 mm dish and grown for 24 h. Then, 1 μl of 5 mM 5-Aza-dC per ml of cells was added every 24 hours for 6 days. DNAs and RNAs were harvested on day 6. […]

OE33 = experiment: as above; type: cell-based
Experimental: as §1
as §2, with “SST” for “TAC1”, “were the same as previously reported. 12” for “are described herein.”, “for normalization of” for “to normalize”, “NRV=(TarS/TarC)/(ACTB-S/ACTB-C),” for “Expression index=(TarS/TarC)/(ACTB-S/ACTB-C,”, “in” for “in the”
To determine whether SST inactivation was due to promoter hypermethylation in esophageal cancer, 2 esophageal cancer cell lines (KYSE220 and OE33) were subjected to 5-Aza-dC (Sigma, St. Louis, Mo.) treatment. Briefly, 1×10^5 cells/ml were seeded onto a 100 mm dish and grown for 24 h. Then, 1 μl of 5 mM 5-Aza-dC per ml of cells was added every 24 hours for 6 days. DNA and RNA were harvested on day 6.
(§3) Samples were treated as in Examples 1 and 2. Briefly, to determine AKAP12 mRNA levels, one-step real-time quantitative RT-PCR was performed using a Qiagen QuantiTect Probe RT-PCR Kit (Qiagen, Hilden, Germany) and the ABI 7700 Sequence Detection System (Applied Biosystems, Foster City, Calif.). Primers and probe for AKAP12 were as follows: […]
(§4) β-actin was used for normalization of data. Primers and probe for β-actin were the same as previously reported. […] Normalized mRNA value (NRV) was calculated according to the following formula for relative expression of target mRNA: NRV=(TarS/TarC)/(ACTB-S/A CTB-C, where TarS and TarC represent levels of mRNA expression for the target gene in sample and control mRNAs, respectively, while ACTB-S and ACTB-C correspond to amplified ACTB levels in sample and control mRNAs, respectively.

HT29 and HCT116 = experiment: cDNA microarray of colon cancer cell lines treated with 5-aza-dC versus untreated cells; type: cell-based, human; conditions: in at least one of HT29, HCT116; 10 μM 84 hours or 1 μM 24 hours then 60 hours drug-free; log ratio greater than 0.75 (1.65-fold)
Experimental: (§5) Next, a cDNA microarray analysis of two colon cancer cell lines was performed, comparing cells treated with 5-aza-dC and untreated cells. Briefly, the colon cancer cell lines HT29 and HCT116 were seeded at a density of 4×10^5 cells per 75 cm^2 culture flask and incubated for 24 hours in growth media. The cells were then treated with 5-aza-dC in either one of the following conditions: a) 10 μM 5-aza-dC for 84 hours or b) 1 μM 5-aza-dC for 24 hours followed by 60 hours of 5-aza-dC-free growth. These two 5-aza-dC treatment regimens were employed to obtain expression data under diverse cellular conditions: the former regimen focused on maximum DNA demethylation, while the latter regimen focused on moderate DNA demethylation to minimize damage to cell viability. […] Genes with very low expression levels in post-treatment specimens were eliminated from further analyses. The cut-off criterion was defined as median signal intensity less than median background intensity plus 1 standard deviation.

BIC = experiment: 5-Aza-dC treatment of esophageal cancer cell line, qMSP and qRT-PCR; type: cell-based
Experimental: as §1, §2
To determine whether TAC1 inactivation was due to promoter hypermethylation in esophageal cancer, 2 esophageal cancer cell lines (KYSE220 and BIC) were subjected to 5-Aza-dC (Sigma, St. Louis, Mo.) treatment. Briefly, 1×10^5 cells/ml were seeded onto a 100 mm dish and grown for 24 h. Then, 1 μl of 5 mM 5-Aza-dC per ml of cells was added every 24 hours for 6 days. DNAs and RNAs were harvested on day 6.
as §3, §4

HT29 = experiment: quantitative MSP and real-time RT-PCR with and without 5-aza-dC treatment; type: cell-based, human; conditions: HT29, after 5-aza-dC treatment
Experimental: as §5
(§6) Tumor samples were snap frozen on dry ice and stored at −80° C. After thawing, DNA was extracted from samples and treated with bisulfite prior to MSP. Briefly, DNA was extracted from all samples and treated with bisulfite to convert unmethylated cytosines to uracils prior to methylation-specific PCR (MSP) as described previously in Mori, Y., et al. Cancer Res. 64:2434-38 (2004), which is incorporated by reference. DNA methylation status and levels of the 4 candidate markers were determined with real-time quantitative MSP using the ABI 7900 HT Sequence Detection (Taqman) System, as described previously in Sato F., et al., Cancer Res. 62:6820-22 (2002), which is incorporated by reference. Primers and probes for quantitative MSP of (SHP-1, DcR1, RARβ, and DcR2) are disclosed in Takahashi, T. et al, Int'l J. Cancer, 118(4): 924-931 (2005), which is incorporated by reference.
(§7) DNA methylation status and levels of 5 genes were determined with real-time quantitative MSP using the ABI 7900 HT Sequence Detection (Taqman) System, as described previously in Sato F., et al., Cancer Res. 62:6820-22 (2002), which is incorporated by reference. Primers and probes for quantitative MSP of ENG, MAL, CAV1, TAC1, SST, NELL1 and AKAP12 are below in Tables III and IV.
(§8) A normalized methylation value (NMV) reflecting the percentage of DNA methylated for the gene of interest (GoI), was defined as follows: NMV=(GoI-S/GoI-FM)/(ACTB-S/ACTB-FM)*100, where GoI-S and GoI-FM represented GoI methylation levels in the Sample and Fully Methylated DNAs, respectively, while ACTB-S and ACTB-FM corresponds to β-Actin in the sample and Fully Methylated (FM) DNAs, respectively.
(§9) Increased SST and TAC1 methylation levels was also observed in cancers relative to matched normal colonic mucosae from the resection margins (FIG. 2). […] Furthermore, we examined the correlation between promoter methylation and mRNA expression levels of SST and TAC1. For this purpose, we analyzed colon cancer cell lines with and without 5-aza-dC treatment using quantitative real-time PCR. mRNA upregulation occurred for both SST and TAC1 after promoter DNA demethylation by 5-aza-dC treatment (FIG. 4).

HCT116 = experiment: as above; type: cell-based, human; conditions: HCT116, after 5-aza-dC treatment
Experimental: as §5, §6, §7, §8, §9

[1] = OE33, 1 μl of 5 mM 5-Aza-dC per ml of cells every 24 hours for 6 days
[2] = 1 μl of 5 mM 5-Aza-dC per ml of cells every 24 hours for 6 days

In the case of `Nc1ncn([C@H]2C[C@H](O)[C@@H](CO)O2)c(=O)n1` [5-aza-dC], the “mRNA of NELL1, CAV1, AKAP12, ENG and MAL” value (HCT116 and HT29) is reported as “increased; also recorded: upregulation”, the “promoter region DNA methylation of NELL1, CAV1, AKAP12, ENG and MAL” value (HCT116 and HT29) is reported as “demethylation; also recorded: decreased” and the “NMV of SST” value (KYSE220) is reported as “diminished”. For the same compound, the “NMV of TAC1” value (KYSE220) was “diminished”, the “mRNA level (NRV) of SST” value (KYSE220) was “increased” and the “mRNA level (NRV) of TAC1” value (KYSE220) was “increased”. For the same compound, the “NMV of AKAP12” value (OE33; OE33, after 5-Aza-dC treatment) was “diminished”, the “mRNA level (NRV) of AKAP12” value (OE33; OE33, after 5-Aza-dC treatment) was “increased” and the “NMV of SST” value (OE33; [1]) was “diminished”. The “mRNA level (NRV) of SST” value (OE33; [1]) was “increased”, the “genes upregulated after 5-aza-dC treatment” value (HT29 and HCT116) was 861 genes and the “NMV of TAC1” value (BIC; [2]) was “diminished”. The “mRNA level (NRV) of TAC1” value (BIC; [2]) was “increased”, the “NMV of AKAP12” value (BIC; after 5-Aza-dC treatment) was “diminished” and the “mRNA level (NRV) of AKAP12” value (BIC; after 5-Aza-dC treatment) was “increased”. The “SST mRNA expression index (EI)” value (HT29) was “upregulation”, the “SST promoter methylation index (MI)” value (HT29) was “demethylation; also recorded: decreased” and the “TAC1 mRNA expression index (EI)” value (HT29) was “upregulation”. For the same compound, the “TAC1 promoter methylation index (MI)” value (HT29) was “demethylation; also recorded: decreased”, the “SST mRNA expression index (EI)” value (HCT116) was “upregulation” and the “SST promoter methylation index (MI)” value (HCT116) was “demethylation; also recorded: decreased”. The “TAC1 mRNA expression index (EI)” value (HCT116) was “upregulation” and the “TAC1 promoter methylation index (MI)” value (HCT116) was “demethylation; also recorded: decreased”.
